Results: PMC6304572, “Simultaneous Evaluation of the Influence of Panax ginseng on the Pharmacokinetics of Three Diester Alkaloids after Oral Administration of Aconiti Lateralis Radix in Rats Using UHPLC/QQQ-MS/MS” (Evidence-based Complementary and Alternative Medicine : eCAM, 2018)
Where two headings read alike, the source gives them in different places.

Experiments:
[1] = Pharmacokinetics of three diester alkaloids in rat plasma after oral Aconiti Lateralis Radix extract, with or without 7-day P. ginseng pretreatment; type: in vivo, Sprague-Dawley rats; details: for CL/F / Cmax / Tmax / Vd/F / half-life: Sprague-Dawley, rat, in vivo, po, 1 g/kg; for CL/F / Cmax / Tmax / Vd/F / half-life / AUC(0-t) / AUC(0-∞): oral Aconiti Lateralis Radix extract 1 g/kg on 8th day; for CL/F: read-out: CLz/F (converted); for Cmax: read-out: Cmax; for Tmax: read-out: Tmax; for Vd/F: read-out: Vz/F; for half-life: read-out: t1/2z (converted)
Method: Rats were randomly divided into 4 groups: control group, P. ginseng (low, middle, and high) group. 7 days of oral administration of P. ginseng extract was administered at a dosage of 0.1, 1, 10 g/kg for P. ginseng group (low, middle, and high), respectively, once daily. Distilled water was administered at a dosage of 2 ml/kg for control group, simultaneously. On the 8th day, Aconiti Lateralis Radix extracts (1 g/kg) were orally administered to all groups. 0.5 ml plasma samples were collected in 1.5 ml centrifuge tubes (containing heparin sodium) at 10, 30, 60, 90, 120, 240, 480, 720, 1440, and 2880 min. All plasma samples were centrifuged for 15 min at 4000g. The supernatant was separated to another 1.5 ml centrifuge tubes and stored at -20°C.
Liquid-liquid extraction (ethyl acetate) and protein precipitation (50% acetonitrile plus 50% methanol) methods were compared to determine the best method to prepare the plasma sample. Liquid-liquid extraction method was chosen, due to reproducibly high recovery rates. The details of the extraction are as follows: 10 μL carbamazepine (IS) was added to 90 μL plasma, spiked with 400 μL ethyl acetate and the mixture vortexed for 15 seconds. After centrifugation at 12,000g for 10 min, the supernatant was transferred to another 1.5 mL centrifuge tube and dried under a stream of nitrogen at 37°C. The residue was redissolved in 100 μL 50% acetonitrile and centrifuged at 12,000g for 10 min and filtered through a 0.22 μm Micropore membrane. A 5 μL volume of supernatant was injected into LC-MS system for analysis.
Xevo TQ-S (Waters, USA) was utilized for the analysis of all biological samples. Chromatographic separation was conducted on Waters ACQUITY UPLC HSS T3 1.8 μm column (2.1 mm × 100 mm). Column temperature was 45°C and the flow rate was 0.5ml/min. Room temperature was 20 ± 2°C. Phase A consisted of water and 0.1% formic acid (v/v), and phase B consisted of acetonitrile (ACN) 0.1% formic acid (v/v). Column separation was performed by gradient elution: 0-0.5 min, 10% B; 1-2 min, 90% B; 4 min, 10% B.
Electrospray ionization (ESI) and positive ion V mode were used to determine the samples. The main parameters for mass spectrum were set as follows: capillary voltage: 3.5 kv; sample cone: 60 v; source offset: 50 v; source temperature: 150°C; desolvation temperature: 350°C; cone gas flow: 150 L/h; desolvation gas flow: 650 L/h; injection volume: 5 μL.
The data was acquired and analyzed by XEVO-QT-S (Waters). The pharmacokinetic parameters were analyzed by DAS pharmacokinetic program (Version 2.0). SAS statistical software was used to determine the difference between each group. All data was presented as mean ± SD, and P<0.05 was considered statistically significant.

[2] = Stability of the three alkaloids in rat plasma QC samples (4°C, room temperature, freeze-thaw); type: in vitro ADME; details: for Freeze-thaw Accuracy: freeze-thaw three times; for Room temperature stability (24 h) Accuracy: room temperature (about 25°C)
Method: Plasma from rats without any processing was used to evaluate the detection methods. 0.1, 0.25, 0.5, 1, 2.5, 5, 10 ng/ml were chosen to calculate standards curve. 0.1, 0.4, 4, 8 ng/mL were selected as the QC sample (n = 4) with repeated operations used to calculate accuracy and precision of the detection method. The data was acquired after keeping the samples at either +4°C 24 hours or room temperature (about 25°C) for 24 hours as well as using freeze-thaw methods (three times) to evaluate stability. Recovery of the developed methods was calculated by the following formula: recovery = measured value/ theoretical value × 100%.

[3] = P. ginseng-high (10 g/kg oral, 7 days)
[4] = P. ginseng-low (0.1 g/kg oral, 7 days)
[5] = P. ginseng-middle (1 g/kg oral, 7 days)
[6] = control group (distilled water 7 days)

| Structure (SMILES) | CL/F [1, 3] [mL/min/kg] | Cmax [1, 3] [ng/mL] | Tmax [1, 3] [h] | Vd/F [1, 3] [L/kg] | half-life [1, 3] [min] | CL/F [1, 4] [mL/min/kg] | Cmax [1, 4] [ng/mL] | Tmax [1, 4] [h] | Vd/F [1, 4] [L/kg] | half-life [1, 4] [min] | CL/F [1, 5] [mL/min/kg] | Cmax [1, 5] [ng/mL] | Tmax [1, 5] [h] | Vd/F [1, 5] [L/kg] | half-life [1, 5] [min] | CL/F [1, 6] [mL/min/kg] | Cmax [1, 6] [ng/mL] | Tmax [1, 6] [h] | Vd/F [1, 6] [L/kg] | half-life [1, 6] [min] | other results |
| --- | --- | --- | --- | --- | --- | --- | --- | --- | --- | --- | --- | --- | --- | --- | --- | --- | --- | --- | --- | --- | --- |
| CCN1C[C@]2(COC)[C@H](O)C[C@H](OC)[C@@]34[C@@H]5C[C@@]6(O)[C@H](OC(=O)c7ccccc7)[C@@H]5[C@@](OC(C)=O)([C@@H]([C@H](OC)[C@H]23)[C@@H]14)[C@@H](O)[C@@H]6OC [Aconitine] | 852 | 11.5 ± 3.49 | 1.33 ± 0.41 | 1550 ± 686 | 1590 ± 1400 | 2870 | 5.03 ± 3.02 | 4 ± 3.27 | 2480 ± 945 | 606 ± 223 | 2830 | 5.79 ± 2.8 | 2.11 ± 2.97 | 1460 ± 190 | 368 ± 70.8 | 3760 | 3.88 ± 0.92 | 2.67 ± 2.91 | 3350 ± 1370 | 643 ± 287 | AUC(0-t) [1, 3]: 162.98 ± 48.50^∗∗ μg/L∗h; AUC(0-∞) [1, 3]: 228.56 ± 100.03^∗∗ μg/L∗h; AUC(0-t) ([1]; P. ginseng-high (10 g/kg oral, 7 days), listed as aconitine): 162.98 ± 48.50 μg/L∗h; AUC(0-t) [1, 4]: 58 ± 13.02 μg/L∗h; AUC(0-∞) [1, 4]: 60.32 ± 12.99 μg/L∗h; AUC(0-t) [1, 5]: 61.05 ± 12.82^∗ μg/L∗h; AUC(0-∞) [1, 5]: 61.49 ± 13.16^∗ μg/L∗h; AUC(0-t) ([1]; P. ginseng-middle (1 g/kg oral, 7 days), listed as aconitine): 61.05 ± 12.82 μg/L∗h; AUC(0-t) [1, 6]: 40.77 ± 9.71 μg/L∗h; AUC(0-∞) [1, 6]: 46.20 ± 9.57 μg/L∗h; 4°C temperature stability (24 h) Accuracy ([2]; QC conc. 0.40 ng/mL): 99.65 ± 2.16%; Freeze-thaw Accuracy ([2]; QC conc. 0.40 ng/mL): 99.71 ± 2.06%; Room temperature stability (24 h) Accuracy ([2]; QC conc. 0.40 ng/mL): 100.49 ± 2.52%; 4°C temperature stability (24 h) Accuracy ([2]; QC conc. 4.00 ng/mL): 98.98 ± 9.99%; Freeze-thaw Accuracy ([2]; QC conc. 4.00 ng/mL): 99.91 ± 6.23%; Room temperature stability (24 h) Accuracy ([2]; QC conc. 4.00 ng/mL): 96.29 ± 3.26%; 4°C temperature stability (24 h) Accuracy ([2]; QC conc. 8.00 ng/mL): 101.57 ± 1.29%; Freeze-thaw Accuracy ([2]; QC conc. 8.00 ng/mL): 100.22 ± 1.87%; Room temperature stability (24 h) Accuracy ([2]; QC conc. 8.00 ng/mL): 97.66 ± 4.54% |
| COC[C@@]12CC[C@H](OC)[C@]34C(C([C@H](OC)[C@H]13)[C@]1(OC(C)=O)[C@H]3[C@@H](OC(=O)c5ccccc5)[C@](O)(C[C@H]34)[C@@H](OC)[C@@H]1O)N(C)C2 [Hypaconitine] | 2320 | 4.87 ± 1.36 | 1.83 ± 1.29 | 2280 ± 954 | 700 ± 253 | 2380 | 4.02 ± 2.01 | 3.61 ± 3.47 | 2020 ± 819 | 582 ± 213 | 2360 | 5.85 ± 2.71 | 2.53 ± 3.01 | 1400 ± 272 | 418 ± 106 | 3400 | 4.63 ± 1.96 | 2.67 ± 2.91 | 3880 ± 1700 | 847 ± 325 | Change of Cmax versus control ([1]; all P. ginseng groups compared to control): did not change; AUC(0-t) [1, 3]: 71.75 ± 22.2^∗ μg/L∗h; AUC(0-∞) [1, 3]: 77.26 ± 25.15^∗ μg/L∗h; AUC(0-t) ([1]; P. ginseng-high (10 g/kg oral, 7 days), listed as hypaconitine): 71.75 ± 22.2 μg/L∗h; AUC(0-t) [1, 4]: 65.64 ± 13.14 μg/L∗h; AUC(0-∞) [1, 4]: 70.68 ± 8.89^∗ μg/L∗h; AUC(0-t) [1, 5]: 70.71 ± 7.55^∗ μg/L∗h; AUC(0-∞) [1, 5]: 71.49 ± 8.07^∗ μg/L∗h; AUC(0-t) ([1]; P. ginseng-middle (1 g/kg oral, 7 days), listed as hypaconitine): 70.71 ± 7.55 μg/L∗h; AUC(0-t) [1, 6]: 48.12 ± 24.59 μg/L∗h; AUC(0-∞) [1, 6]: 60.16 ± 28.03 μg/L∗h; 4°C temperature stability (24 h) Accuracy ([2]; QC conc. 0.40 ng/mL): 97.44 ± 2.35%; Freeze-thaw Accuracy ([2]; QC conc. 0.40 ng/mL): 99.71 ± 2.06%; Room temperature stability (24 h) Accuracy ([2]; QC conc. 0.40 ng/mL): 100.49 ± 2.52%; 4°C temperature stability (24 h) Accuracy ([2]; QC conc. 4.00 ng/mL): 104.96 ± 5.49%; Freeze-thaw Accuracy ([2]; QC conc. 4.00 ng/mL): 100.26 ± 6.03%; Room temperature stability (24 h) Accuracy ([2]; QC conc. 4.00 ng/mL): 98.72 ± 4.30%; 4°C temperature stability (24 h) Accuracy ([2]; QC conc. 8.00 ng/mL): 101.13 ± 4.82%; Freeze-thaw Accuracy ([2]; QC conc. 8.00 ng/mL): 102.33 ± 3.19%; Room temperature stability (24 h) Accuracy ([2]; QC conc. 8.00 ng/mL): 100.64 ± 3.60% |
